Measured values: the Kinase Knowledgebase extract (Sharma et al. 2016)

target: MAPK14 (human) (UniProt Q16539); experiment: Inhibition of LPS Induced IL-1Beta Production in Huamn PBMC
Sequence (Q16539 whole entry, looked up): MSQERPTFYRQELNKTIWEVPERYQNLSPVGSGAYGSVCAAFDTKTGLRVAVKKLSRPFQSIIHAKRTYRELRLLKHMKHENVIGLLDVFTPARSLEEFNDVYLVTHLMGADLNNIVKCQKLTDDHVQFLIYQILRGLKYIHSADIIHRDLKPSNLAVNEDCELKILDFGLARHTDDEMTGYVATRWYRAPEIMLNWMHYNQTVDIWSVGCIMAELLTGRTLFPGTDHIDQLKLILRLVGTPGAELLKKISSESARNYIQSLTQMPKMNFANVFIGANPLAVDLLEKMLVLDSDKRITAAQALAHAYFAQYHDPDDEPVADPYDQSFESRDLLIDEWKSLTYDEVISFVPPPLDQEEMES

In order of falling IC50:
1. C[C@H](Nc1nccc(-c2c(-c3ccc(F)cc3)c(=O)n3n2CCC3)n1)C(C)(C)O  42 nM
2. COC[C@H](C)Nc1nccc(-c2c(-c3ccc(F)cc3)c(=O)n3n2CCC3)n1  39 nM
3. C[C@H](Nc1nccc(-c2c(-c3ccc(F)cc3)c(=O)n3n2CCC3)n1)c1ccccc1  0.8 nM

target: MAPK14 (human) (UniProt Q16539); experiment: Inhibition of LPS Induced TNF-alpha Production in Human PBMC

In order of falling IC50:
1. COC[C@H](C)Nc1nccc(-c2c(-c3ccc(F)cc3)c(=O)n3n2CCC3)n1  16 nM
2. C[C@H](Nc1nccc(-c2c(-c3ccc(F)cc3)c(=O)n3n2CCC3)n1)C(C)(C)O  8 nM
3. C[C@H](Nc1nccc(-c2c(-c3ccc(F)cc3)c(=O)n3n2CCC3)n1)c1ccccc1  0.4 nM

target: MAPK14 (human) (UniProt Q16539); experiment: Inhibition of LPS Induced TNF-alpha Production in THP1 Cells

In order of falling IC50:
1. O=c1c(-c2ccc(F)cc2)c(-c2ccnc(Nc3ccccn3)n2)n2n1CCC2  600 nM
2. COC[C@H](C)Nc1nccc(-c2c(-c3ccc(F)cc3)c(=O)n3n2CCCC3)n1  543 nM
3. O=c1c(-c2ccc(F)cc2)c(-c2ccnc(Nc3c(Cl)ncnc3Cl)n2)n2n1CCC2  476 nM
4. COCCCNc1nccc(-c2c(-c3ccc(F)cc3)c(=O)n3n2CCC3)n1  301 nM
5. O=c1c(-c2ccc(F)cc2)c(-c2ccnc(NCc3ccccn3)n2)n2n1CCC2  263 nM
6. C[C@H](Nc1nccc(-c2c(-c3ccc(F)cc3)c(=O)n3n2CCCC3)n1)C(C)(C)O  260 nM
7. COC(=O)[C@H](Nc1nccc(-c2c(-c3ccc(F)cc3)c(=O)n3n2CCC3)n1)c1ccccc1  147 nM
8. O=c1c(-c2ccc(F)cc2)c(-c2ccnc(NCc3cccnc3)n2)n2n1CCC2  121 nM
9. CC[C@H](C)Nc1nccc(-c2c(-c3ccc(F)cc3)c(=O)n3n2CCCC3)n1  106 nM
10. O=c1c(-c2ccc(F)cc2)c(-c2ccnc(NCC3CC3)n2)n2n1CCC2  94 nM
11. O=c1c(-c2ccc(F)cc2)c(-c2ccnc(Nc3ccccc3)n2)n2n1CCC2  80 nM
12. O=c1c(-c2ccc(F)cc2)c(-c2ccnc(NC3CC3)n2)n2n1CCC2  78 nM
13. O=c1c(-c2ccc(F)cc2)c(-c2ccnc(NCc3ccccc3)n2)n2n1CCC2  74 nM
14. COC[C@H](C)Nc1nccc(-c2c(-c3ccc(F)cc3)c(=O)n3n2CCC3)n1  50 nM
15. C[C@H](Nc1nccc(-c2c(-c3ccc(F)cc3)c(=O)n3n2CCC3)n1)C1CCCCC1  38 nM
16. Cc1ccc([C@H](C)Nc2nccc(-c3c(-c4ccc(F)cc4)c(=O)n4n3CCC4)n2)cc1  37 nM
17. C=CCNc1nccc(-c2c(-c3ccc(F)cc3)c(=O)n3n2CCC3)n1  30 nM
18. C[C@H](Nc1nccc(-c2c(-c3ccc(F)cc3)c(=O)n3n2CCCC3)n1)c1ccccc1  29 nM
19. C[C@@H](Nc1nccc(-c2c(-c3ccc(F)cc3)c(=O)n3n2CCC3)n1)c1ccccc1  27 nM
20. CC(C)(C)Nc1nccc(-c2c(-c3ccc(F)cc3)c(=O)n3n2CCC3)n1  24 nM
21. O=c1c(-c2ccc(F)cc2)c(-c2ccnc(Nc3c(F)cccc3F)n2)n2n1CCC2  6 nM
22. O=c1c(-c2ccc(F)cc2)c(-c2ccnc(Nc3c(Cl)cccc3Cl)n2)n2n1CCC2  4 nM
23. C[C@H](Nc1nccc(-c2c(-c3ccc(F)cc3)c(=O)n3n2CCC3)n1)c1ccccc1  3 nM
24. CC[C@H](C)Nc1nccc(-c2c(-c3ccc(F)cc3)c(=O)n3n2CCC3)n1  2 nM
